Patent US7770577B2, “Methods and devices for treating lung dysfunction” (priority 2001, dated 2010)
Read-outs that look alike come from different tables or passages of the source.

Key:
[1] = test system: CF airway epithelial cell cultures; assay: SCN− efflux in CF airway epithelial air-liquid interface cultures; format: cell-based, human; settings: for effect on SCN^− efflux: CF cells
Method: (§1) J. Respir. […] Experiments comparing non-CF and CF cells were performed with cultures grown simultaneously and matched in passage number, the number of cells plated, and days in culture. […] To initiate experiments, apical surfaces of the cultures were rapidly washed three times with Dulbecco's PBS (50 μl for 6.5 mm filters or 500 μl for 24 mm filters) containing 100 μM amiloride. Following a third wash, additional aliquots were placed on the apical surface for sequential 2 min incubations at 37° C. in humidified 5% CO2.
(§2) Bronchial epithelial cells were obtained from either CF or non-CF lungs at the time of transplant or organ donation. Cells were passaged twice (thereby de-differentiated) and then cultured at an air-liquid interface for re-differentiation. […] J. Respir. […] Following three rapid PBS washes of the apical surface, additional PBS aliquots were placed on the apical surface for sequential 2 min incubations. […] Airway epithelial cell cultures from three separate CF patients were compared to three non-CF control cultures.

human airway epithelia = assay: Apical H2O2 production by airway epithelial ALI cultures (fluorometric horseradish peroxidase micro-assay); format: cell-based
Method: Reverse transcription-polymerase chain reaction (RT-PCR) was performed with primers designed to detect any mammalian NADPH oxidase capable of producing H2O2 through superoxide intermediate.
Since the predicted molecular structure of Duox1 and 2 identified an intracellular loop containing 2 EF-hand calcium-binding motifs, the Ca^2+ stimulated H2O2 production was assessed. ALI cultures were stimulated for one hour with Thapsigargin (1 μM), an inhibitor of the endoplasmic reticulum calcium ATPase pump that increases intracellular Ca^2+. […] In this assay, the cells were incubated for one hour with either DPI alone or in combination with thapsigargin (1 μM).

[2] = test system: Pseudomonas aeruginosa (ATCC 27853); assay: Antibacterial assay of LPO system components in PBS pH 5.7 (control experiments); format: cell-based; settings: 1.125 μg/ml LPO, 10^−5 M H2O2 or 5×10^−4 M SCN− added singly or in pairs
Method: (§3) Bacteria were collected in the stationary phase of growth and further diluted in LB broth to 5-6×10^4/ml. After adding glycerol to 15%, aliquots of bacteria were stored at −80° C.
(§4) Cultures of non-CF and CF airway epithelial cells were matched with regard to passage number, days in culture, and days at the air liquid interface. At least 24 h prior to the experiments, basolateral media of some cultures were supplemented with 100 μM KSCN. The apical surfaces of the cultures were washed with 0.25 ml PBS and the washes were pooled and stored at −20° C. […] Control experiments were performed using only PBS adjusted to pH 5.7. […] Mixtures were sampled immediately and 4 h after incubation at room temperature and CFU were determined by plating on LB Agar. Antibacterial activity was expressed as a ratio of CFU after 4 h to the starting CFU in the sample to control for slight differences in the starting number of bacteria.

P. aeruginosa [3] = test system: P. aeruginosa
Method: as §3, §4

[4] = test system: Pseudomonas aeruginosa (ATCC 27853); assay: LPO-dependent antibacterial activity of human airway secretions; format: cell-based
Method: Human airway secretions were obtained from intubated patients undergoing ambulatory outpatient elective surgery according to IRB approved protocols. Patients were selected for not having respiratory disease. Saline (3 ml) was injected into the tracheal tube and immediately suctioned into a trap. Recovered secretions were spun at 16,000 rpm for 20 min. at 4° C. The supernatant was aliquoted and stored at −80° C. for later analysis. Undiluted secretions were obtained from acutely (<24 h) intubated patients in the medical ICU who were intubated for reasons other than respiratory disease. Selected patients had no clinical signs of respiratory infection. Secretions were cleared by centrifugation (100,000×g, 30 min), aliquoted, and stored at −80° C.
as §3, §4
It is unlikely that H2O2 would continue to be produced in secretions after collection since its source is thought to be cellular in origin. For this reason, secretions were supplemented with 10^−5 M H2O2.

P. aeruginosa [5] = assay: LPO dependent killing with bovine milk LPO at pH 5.7, 6.2 and 6.8; format: cell-based, Pseudomonas aeruginosa; settings: dapsone 10^−3 M; salicyl hydroxamic acid 10^−4 M
From the text: (§5) Concentrations of the LPO system components were selected to be within the measured ranges in human airways.

Burkholderia cepacia = assay: as above; format: cell-based; settings: dapsone 10^−3 M; salicyl hydroxamic acid 10^−4 M
From the text: as §5

[6] = test system: non-CF airway epithelial cell cultures; assay: SCN− efflux / apical accumulation in non-CF airway epithelial air-liquid interface cultures; format: cell-based, human
Method: as §1, §2

[7] = cited from earlier work
[8] = PBS pH 5.7, 4 h room temperature, H2O2 10^−5 M or dapsone 10^−3 M, mean±SE, n=6
[9] = long-term daily aerosol administration

Molecule: O=S(=O)(O)c1cc(N=C=S)ccc1C=Cc1ccc(N=C=S)cc1S(=O)(=O)O [DIDS, 4,4′-diisothiocyanostilbene-2,2′disulphonic acid]
- effect on SCN^− efflux [1]: neither glibenclamide nor DIDS had any effect

Molecule: c1ccc2c(c1)[I+]c1ccccc1-2 [DPI, Diphenyleneiodonium]
- apical H2O2 production (human airway epithelia; 1 μM DPI in combination with thapsigargin (1 μM), one hour): 45±19 H2O2 pmoles/hr

Molecule: OO [H2O2, hydrogen peroxide]
- growth of bacteria [2]: not affected
- antibacterial activity in culture washes (P. aeruginosa [3]; H2O2 10^−5 M alone or with LPO, washes from cells cultured without basolateral SCN−): did not alone or with LPO, give rise to any antibacterial activity
- cell growth (ratio of CFU after 4 h to starting CFU) [4, 8]: 1.9±0.3
- cell growth (ratio of CFU after 4 h to starting CFU) ([4]; bacteria in airway secretions of six patients in presence of 10^−5 M H2O2, n=6): 0.98±0.16

Molecule: N#CS [SCN^−, thiocyanate]
- growth of bacteria [2]: not affected
- antibacterial activity in culture washes (P. aeruginosa [3]; LPO/H2O2 supplemented washes from CF cultures grown with basolateral SCN− (100 μM)): no detectable LPO-dependent effect
- antibacterial activity in culture washes (P. aeruginosa [3]; LPO/H2O2 supplemented washes from non-CF cultures grown with basolateral SCN− (100 μM)): LPO-dependent killing of bacteria
- antibacterial activity in culture washes (P. aeruginosa [3]; exogenous SCN− (0.5 mM) added to CF culture washes): generated antibacterial activity
- antibacterial activity in culture washes (P. aeruginosa [3]; exogenous SCN− (0.5 mM) added to non-CF culture washes): increased the LPO dependent activity

Molecule: Nc1ccc(S(=O)(=O)c2ccc(N)cc2)cc1 [dapsone]
- effect of peroxidase inhibitor on LPO system antibacterial activity (P. aeruginosa [5]): inhibited
- effect of peroxidase inhibitor on LPO system antibacterial activity (Burkholderia cepacia): inhibited
- cell growth (ratio of CFU after 4 h to starting CFU) [4, 8]: 1.9±0.3
- cell growth (ratio of CFU after 4 h to starting CFU) ([4]; airway secretions with 10^−5 M H2O2 plus dapsone, n=6, p<0.05 vs no dapsone): 1.68±0.31

Molecule: CCCC(=O)Nc1ncnc2c1ncn2[C@@H]1O[C@@H]2COP(=O)(O)O[C@H]2[C@H]1OC(=O)CCC [dibutryl cAMP]
- SCN^− efflux after stimulation of PKA ([6]; non-CF cultures, dibutryl cAMP (0.5 mM) and forskolin (10 μM) together): increase in efflux
- SCN^− efflux after stimulation of PKA ([1]; CF cultures, dibutryl cAMP (0.5 mM) and forskolin (10 μM) together): did not

Molecule: COc1ccc(Cl)cc1C(=O)NCCc1ccc(S(=O)(=O)NC(=O)NC2CCCCC2)cc1 [glibenclamide]
- reversibility of inhibition of SCN^− efflux ([6]; non-CF cells): reversible
- block of PKA-stimulated and baseline SCN^− efflux ([6]; non-CF cells, glibenclamide 500 μM): blocked
- effect on SCN^− efflux [1]: neither glibenclamide nor DIDS had any effect

Molecule: CC(C)Cc1ccc(C(C)C(=O)O)cc1 (stereo not drawn) [ibuprofen]
- rate of lung inflammation ([7]; children with CF, four-year study, high doses): reduced the rate of lung inflammation

Molecule: C/C=C(/C)C(=O)O[C@H]1C(C)=C2[C@H]([C@@H]1OC(=O)CCCCCCC)[C@@](C)(OC(C)=O)C[C@H](OC(=O)CCC)[C@@]1(O)[C@H]2OC(=O)[C@@]1(C)O [thapsigargin, Thapsigargin]
- apical H2O2 produced (human airway epithelia; ALI cultures stimulated one hour with thapsigargin 1 μM (baseline 59±16)): 128±17 H2O2 pmoles/hr

Molecule: lactoperoxidase [LPO]
- growth of bacteria [2]: not affected

B1: Pulmozyme®: mucus-thinning drug, a DNAse (recombinant human deoxyribonuclease) (protein, UniProt P24855 23-282, looked up)
Deoxyribonuclease-1: LKIAAFNIQTFGETKMSNATLVSYIVQILSRYDIALVQEVRDSHLTAVGKLLDNLNQDAPDTYHYVVSEPLGRNSYKERYLFVYRPDQVSAVDSYYYDDGCEPCGNDTFNREPAIVRFFSRFTEVREFAIVPLHAAPGDAVAEIDALYDVYLDVQEKWGLEDVMLMGDFNAGCSYVRPSQWSSIRLWTSPTFQWLIPDSADTTATPTHCAYDRIVVAGMLLRGAVVPDSALPFNFQAAYGLSDQLAQAISDHYPVEVMLK
- lung function ([7]; clinical trials, people with CF): improved lung function
- number of respiratory infections ([7]; clinical trials): reduced the number of respiratory infections
- frequency of severe respiratory tract exacerbations [7, 9]: decrease the frequency of severe respiratory tract exacerbations
- rate of decline in pulmonary function [7, 9]: slow the rate of decline in pulmonary function
